Experimental data reported in patent EP4722207A1, “OXOISOINDOLINYL-SUBSTITUTED TETRAHYDROPYRIMIDINEDIONE DERIVATIVE AND USE THEREOF” (Gluetacs Therapeutics (Shanghai) Co., Ltd., priority 2023, dated 2024).

Legend:
Type in all cases: cell-based
WEE1 = target: T1, WEE1 (Homo sapiens, UniProt P30291+Q96SW2); test: Western-blot assay, substrate protein degradation in hPBMCs: WEE1; details: for WEE1 substrate protein remaining %: compounds at 50 nM and 500 nM, 24 hours; for substrate protein remaining % WEE1: 24 hours of compound treatment, 50 nM and 500 nM
T1 construct: effects of the compounds of the present disclosure on the expression of target proteins in cells; endogenous in cells; host or cells: human PBMCs (hPBMCs)
T1 sequence (P30291 whole entry): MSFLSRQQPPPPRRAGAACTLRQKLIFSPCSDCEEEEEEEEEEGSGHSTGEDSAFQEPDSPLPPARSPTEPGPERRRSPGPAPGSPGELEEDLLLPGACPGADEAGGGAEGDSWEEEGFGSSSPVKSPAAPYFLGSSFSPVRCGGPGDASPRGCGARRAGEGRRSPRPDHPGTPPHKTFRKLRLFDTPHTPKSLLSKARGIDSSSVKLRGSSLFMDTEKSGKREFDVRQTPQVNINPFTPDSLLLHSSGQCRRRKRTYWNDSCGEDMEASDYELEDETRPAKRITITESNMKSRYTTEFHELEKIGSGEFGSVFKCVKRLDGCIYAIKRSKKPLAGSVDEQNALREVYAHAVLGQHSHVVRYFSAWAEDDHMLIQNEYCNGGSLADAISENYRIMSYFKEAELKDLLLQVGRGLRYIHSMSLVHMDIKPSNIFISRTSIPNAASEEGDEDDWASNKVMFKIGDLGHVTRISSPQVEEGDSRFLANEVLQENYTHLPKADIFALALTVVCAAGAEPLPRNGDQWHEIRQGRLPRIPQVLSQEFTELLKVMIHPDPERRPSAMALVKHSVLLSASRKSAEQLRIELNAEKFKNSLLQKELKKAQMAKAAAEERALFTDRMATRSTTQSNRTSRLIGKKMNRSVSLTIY
T1 sequence (Q96SW2 whole entry): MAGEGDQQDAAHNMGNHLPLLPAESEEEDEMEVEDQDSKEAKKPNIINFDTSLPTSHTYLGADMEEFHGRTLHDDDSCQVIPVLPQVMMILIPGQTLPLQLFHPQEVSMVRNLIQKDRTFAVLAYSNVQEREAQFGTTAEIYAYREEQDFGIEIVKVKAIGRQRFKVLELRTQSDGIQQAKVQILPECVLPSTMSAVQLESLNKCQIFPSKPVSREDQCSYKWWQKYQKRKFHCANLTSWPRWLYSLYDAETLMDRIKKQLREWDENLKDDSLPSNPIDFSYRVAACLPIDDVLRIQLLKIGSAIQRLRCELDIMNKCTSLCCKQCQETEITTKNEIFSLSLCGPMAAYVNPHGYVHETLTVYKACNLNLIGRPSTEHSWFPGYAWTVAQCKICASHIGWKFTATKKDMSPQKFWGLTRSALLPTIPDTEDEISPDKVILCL
T1 sequence (Q16531 whole entry partner): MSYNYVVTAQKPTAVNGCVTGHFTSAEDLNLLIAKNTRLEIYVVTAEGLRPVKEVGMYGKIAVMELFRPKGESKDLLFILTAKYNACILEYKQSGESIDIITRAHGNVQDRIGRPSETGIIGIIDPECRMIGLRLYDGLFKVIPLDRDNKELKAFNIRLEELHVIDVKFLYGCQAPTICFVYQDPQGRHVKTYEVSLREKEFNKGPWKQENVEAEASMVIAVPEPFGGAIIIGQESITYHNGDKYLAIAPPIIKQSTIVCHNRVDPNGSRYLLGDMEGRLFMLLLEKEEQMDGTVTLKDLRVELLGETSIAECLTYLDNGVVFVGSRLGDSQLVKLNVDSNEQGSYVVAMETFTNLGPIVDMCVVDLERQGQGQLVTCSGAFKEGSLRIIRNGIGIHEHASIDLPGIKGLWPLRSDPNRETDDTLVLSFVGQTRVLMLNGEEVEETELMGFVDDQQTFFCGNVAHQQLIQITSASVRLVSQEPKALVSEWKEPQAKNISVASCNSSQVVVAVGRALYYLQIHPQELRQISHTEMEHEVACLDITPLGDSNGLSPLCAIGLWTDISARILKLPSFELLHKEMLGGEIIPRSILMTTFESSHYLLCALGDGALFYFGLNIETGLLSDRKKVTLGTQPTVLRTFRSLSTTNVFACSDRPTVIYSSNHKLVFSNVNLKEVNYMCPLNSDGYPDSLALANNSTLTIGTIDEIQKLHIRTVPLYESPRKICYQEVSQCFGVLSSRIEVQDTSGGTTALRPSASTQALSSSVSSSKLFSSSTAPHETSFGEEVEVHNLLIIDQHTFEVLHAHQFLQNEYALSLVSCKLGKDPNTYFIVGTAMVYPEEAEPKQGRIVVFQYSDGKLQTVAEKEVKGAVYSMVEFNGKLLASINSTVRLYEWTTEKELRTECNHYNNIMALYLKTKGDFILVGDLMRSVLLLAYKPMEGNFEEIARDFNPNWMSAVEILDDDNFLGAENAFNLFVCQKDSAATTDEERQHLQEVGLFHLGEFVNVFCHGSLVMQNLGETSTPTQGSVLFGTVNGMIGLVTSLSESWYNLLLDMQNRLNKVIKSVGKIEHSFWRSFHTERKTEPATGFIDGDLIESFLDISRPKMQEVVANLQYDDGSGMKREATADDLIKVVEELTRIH

IKZF1 = target: T2, IKZF1 (Homo sapiens, UniProt Q13422+Q96SW2); test: Western-blot assay, substrate protein degradation in hPBMCs: IKZF1; details: for IKZF1 substrate protein remaining %: compounds at 50 nM and 500 nM, 24 hours; for substrate protein remaining % IKZF1: 24 hours of compound treatment, 50 nM and 500 nM
T2 construct: effects of the compounds of the present disclosure on the expression of target proteins in cells; endogenous in cells; host or cells: human PBMCs (hPBMCs)
T2 sequence (Q13422 whole entry): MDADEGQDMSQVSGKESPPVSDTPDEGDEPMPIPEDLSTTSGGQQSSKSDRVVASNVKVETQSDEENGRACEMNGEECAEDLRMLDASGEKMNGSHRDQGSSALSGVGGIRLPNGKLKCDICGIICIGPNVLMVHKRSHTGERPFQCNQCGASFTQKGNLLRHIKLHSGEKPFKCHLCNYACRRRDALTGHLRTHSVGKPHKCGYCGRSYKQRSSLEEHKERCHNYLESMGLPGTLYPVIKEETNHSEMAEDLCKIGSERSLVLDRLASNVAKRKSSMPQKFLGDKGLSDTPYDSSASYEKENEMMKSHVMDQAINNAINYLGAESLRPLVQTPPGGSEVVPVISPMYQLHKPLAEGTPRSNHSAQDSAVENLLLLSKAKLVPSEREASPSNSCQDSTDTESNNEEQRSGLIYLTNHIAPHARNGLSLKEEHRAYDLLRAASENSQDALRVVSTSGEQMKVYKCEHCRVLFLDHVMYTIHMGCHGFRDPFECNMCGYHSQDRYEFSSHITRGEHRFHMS
T2 sequence (Q96SW2 whole entry): as the sequence (Q96SW2 whole entry) above
T2 sequence (Q16531 whole entry partner): as the sequence (Q16531 whole entry partner) above

IKZF2 = target: T3, IKZF2 (Homo sapiens, UniProt Q96SW2+Q9UKS7); test: Western-blot assay, substrate protein degradation in hPBMCs: IKZF2; details: for IKZF2 substrate protein remaining %: compounds at 50 nM and 500 nM, 24 hours; for substrate protein remaining % IKZF2: 24 hours of compound treatment, 50 nM and 500 nM
T3 construct: effects of the compounds of the present disclosure on the expression of target proteins in cells; endogenous in cells; host or cells: human PBMCs (hPBMCs)
T3 sequence (Q9UKS7 whole entry): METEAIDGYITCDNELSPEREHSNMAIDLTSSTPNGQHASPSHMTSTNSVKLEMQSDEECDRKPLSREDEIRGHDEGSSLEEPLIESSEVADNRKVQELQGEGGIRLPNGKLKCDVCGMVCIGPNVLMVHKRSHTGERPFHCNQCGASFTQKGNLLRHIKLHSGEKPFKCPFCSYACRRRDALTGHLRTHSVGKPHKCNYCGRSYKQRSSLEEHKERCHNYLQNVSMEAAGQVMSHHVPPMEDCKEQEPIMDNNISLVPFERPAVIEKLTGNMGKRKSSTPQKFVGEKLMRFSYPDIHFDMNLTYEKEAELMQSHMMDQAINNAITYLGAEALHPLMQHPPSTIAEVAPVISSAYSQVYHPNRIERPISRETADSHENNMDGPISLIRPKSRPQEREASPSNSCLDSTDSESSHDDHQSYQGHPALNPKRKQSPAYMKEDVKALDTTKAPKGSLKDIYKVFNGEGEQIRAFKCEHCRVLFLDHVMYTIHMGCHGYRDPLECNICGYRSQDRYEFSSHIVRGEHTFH
T3 sequence (Q96SW2 whole entry): as the sequence (Q96SW2 whole entry) above
T3 sequence (Q16531 whole entry partner): as the sequence (Q16531 whole entry partner) above

IKZF3 = target: T4, IKZF3 (Homo sapiens, UniProt Q96SW2+Q9UKT9); test: Western-blot assay, substrate protein degradation in hPBMCs: IKZF3; details: for IKZF3 substrate protein remaining %: compounds at 50 nM and 500 nM, 24 hours; for substrate protein remaining % IKZF3: 24 hours of compound treatment, 50 nM and 500 nM
T4 construct: effects of the compounds of the present disclosure on the expression of target proteins in cells; endogenous in cells; host or cells: human PBMCs (hPBMCs)
T4 sequence (Q9UKT9 whole entry): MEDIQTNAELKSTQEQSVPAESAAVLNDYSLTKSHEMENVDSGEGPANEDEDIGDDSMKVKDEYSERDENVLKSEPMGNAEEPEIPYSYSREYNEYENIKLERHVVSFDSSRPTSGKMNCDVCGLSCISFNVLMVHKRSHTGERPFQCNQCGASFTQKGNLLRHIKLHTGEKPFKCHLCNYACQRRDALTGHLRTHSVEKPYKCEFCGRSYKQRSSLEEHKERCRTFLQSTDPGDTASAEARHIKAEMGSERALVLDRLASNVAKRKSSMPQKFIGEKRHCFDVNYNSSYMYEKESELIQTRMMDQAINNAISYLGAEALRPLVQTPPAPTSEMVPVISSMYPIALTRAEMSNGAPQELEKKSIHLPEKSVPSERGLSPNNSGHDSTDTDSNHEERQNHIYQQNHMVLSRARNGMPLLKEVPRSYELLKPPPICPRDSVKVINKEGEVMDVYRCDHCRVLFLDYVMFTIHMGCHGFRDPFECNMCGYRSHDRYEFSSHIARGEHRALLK
T4 sequence (Q96SW2 whole entry): as the sequence (Q96SW2 whole entry) above
T4 sequence (Q16531 whole entry partner): as the sequence (Q16531 whole entry partner) above

CK1α = target: T5, CK1α (Homo sapiens, UniProt P48729+Q96SW2); test: Western-blot assay, substrate protein degradation in hPBMCs: CK1α; details: for CK1α substrate protein remaining %: compounds at 50 nM and 500 nM, 24 hours; for substrate protein remaining % CK1α: 24 hours of compound treatment, 50 nM and 500 nM
T5 construct: effects of the compounds of the present disclosure on the expression of target proteins in cells; endogenous in cells; host or cells: human PBMCs (hPBMCs)
T5 sequence (P48729 whole entry): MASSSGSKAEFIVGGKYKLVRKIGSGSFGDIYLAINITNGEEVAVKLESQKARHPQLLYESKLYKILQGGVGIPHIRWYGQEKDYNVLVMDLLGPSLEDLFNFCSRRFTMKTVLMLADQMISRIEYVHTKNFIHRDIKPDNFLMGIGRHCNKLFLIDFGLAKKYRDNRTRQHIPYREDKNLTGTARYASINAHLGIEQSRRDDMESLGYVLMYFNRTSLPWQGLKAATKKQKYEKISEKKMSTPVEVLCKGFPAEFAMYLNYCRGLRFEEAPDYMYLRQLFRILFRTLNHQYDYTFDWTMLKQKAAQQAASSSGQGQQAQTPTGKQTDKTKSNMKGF
T5 sequence (Q96SW2 whole entry): as the sequence (Q96SW2 whole entry) above
T5 sequence (Q16531 whole entry partner): as the sequence (Q16531 whole entry partner) above

GSPT1 = target: T6, GSPT1 (Homo sapiens, UniProt P15170+Q96SW2); test: Western-blot assay, substrate protein degradation in hPBMCs: GSPT1; details: for GSPT1 substrate protein remaining %: compounds at 50 nM and 500 nM, 24 hours; for substrate protein remaining % GSPT1: 24 hours of compound treatment, 50 nM and 500 nM
T6 construct: effects of the compounds of the present disclosure on the expression of target proteins in cells; endogenous in cells; host or cells: human PBMCs (hPBMCs)

Row | SMILES | WEE1 substrate protein remaining % (WEE1) | IKZF1 substrate protein remaining % (IKZF1) | IKZF2 substrate protein remaining % (IKZF2) | IKZF3 substrate protein remaining % (IKZF3) | CK1α substrate protein remaining % (CK1α) | GSPT1 substrate protein remaining % (GSPT1) | substrate protein remaining % WEE1 (WEE1) | substrate protein remaining % IKZF1 (IKZF1) | substrate protein remaining % IKZF2 (IKZF2) | substrate protein remaining % IKZF3 (IKZF3) | substrate protein remaining % CK1α (CK1α) | substrate protein remaining % GSPT1 (GSPT1)
1 | O=C1CCN(N2Cc3cc(CN4CCN(c5ccc(F)c(F)c5)CC4)ccc3C2=O)C(=O)N1 [GT-06781, 1-(5-((4-(3,4-difluorophenyl)piperazin-1-yl)methyl)-1-oxoisoindolin-2-yl)dihydropyrimidine-2,4(1H,3H)-dione] | B ("B" is defined as 80%< substrate protein remaining %≤ 100%) | B ("B" is defined as 80%< substrate protein remaining %≤ 100%) | B ("B" is defined as 80%< substrate protein remaining %≤ 100%) | B ("B" is defined as 80%< substrate protein remaining %≤ 100%) | A ("A" is defined as 0% ≤ substrate protein remaining % ≤ 80%) | A ("A" is defined as 0% ≤ substrate protein remaining % ≤ 80%) | – | – | – | – | – | –
2 | O=C1CCN(N2Cc3cc(CN4CCn5c(nnc5C(F)(F)F)C4)ccc3C2=O)C(=O)N1 [GT-07719, 1-(1-oxo-5-((3-(trifluoromethyl)-5,6-dihydro-[1,2,4]triazolo[4,3-a]pyrazin-7(8H)-yl)methyl)isoindolin-2-yl)dihydropyrimidine-2,4(1H,3H)-dione] | – | – | – | – | – | – | B (80%< substrate protein remaining %≤ 100%) | B (80%< substrate protein remaining %≤ 100%) | A (0% ≤ substrate protein remaining % ≤ 80%) | A (0% ≤ substrate protein remaining % ≤ 80%) | A (0% ≤ substrate protein remaining % ≤ 80%) | A (0% ≤ substrate protein remaining % ≤ 80%)
3 | O=C1CCN(N2Cc3cc(CN4CCC(N5CCOc6cc(F)ccc65)CC4)ccc3C2=O)C(=O)N1 [GT-07585, 1-(5-((4-(7-fluoro-2,3-dihydro-4H-benzo[b][1,4]oxazin-4-yl)piperidin-1-yl)methyl)-1-oxoisoindolin-2-yl)dihydropyrimidine-2,4(1H,3H)-dione] | – | – | – | – | – | – | A (0% ≤ substrate protein remaining % ≤ 80%) | A (0% ≤ substrate protein remaining % ≤ 80%) | B (80%< substrate protein remaining %≤ 100%) | B (80%< substrate protein remaining %≤ 100%) | B (80%< substrate protein remaining %≤ 100%) | A (0% ≤ substrate protein remaining % ≤ 80%)
4 | O=C1CCN(N2C(=O)c3ccc(CN4CCCN(C(c5ccccc5)c5ccccc5)CC4)cc3C2=O)C(=O)N1 [GT-07295, 5-((4-benzhydryl-1,4-diazepan-1-yl)methyl)-2-(2,4-dioxotetrahydropyrimidin-1(2H)-yl)isoindoline-1,3-dione] | B ("B" is defined as 80%< substrate protein remaining %≤ 100%) | B ("B" is defined as 80%< substrate protein remaining %≤ 100%) | B ("B" is defined as 80%< substrate protein remaining %≤ 100%) | B ("B" is defined as 80%< substrate protein remaining %≤ 100%) | B ("B" is defined as 80%< substrate protein remaining %≤ 100%) | A ("A" is defined as 0% ≤ substrate protein remaining % ≤ 80%) | – | – | – | – | – | –
5 | O=C1CCN(N2Cc3cc(CN4CCC(c5ccoc5)CC4)ccc3C2=O)C(=O)N1 [GT-07375, 1-(5-((4-(furan-3-yl)piperidin-1-yl)methyl)-1-oxoisoindolin-2-yl)dihydropyrimidine-2,4(1H,3H)-dione] | – | – | – | – | – | – | B (80%< substrate protein remaining %≤ 100%) | B (80%< substrate protein remaining %≤ 100%) | B (80%< substrate protein remaining %≤ 100%) | B (80%< substrate protein remaining %≤ 100%) | A (0% ≤ substrate protein remaining % ≤ 80%) | A (0% ≤ substrate protein remaining % ≤ 80%)
6 | O=C1CCN(N2C(=O)c3ccc(CN4CCC(c5ccccc5C(F)(F)F)CC4)cc3C2=O)C(=O)N1 [GT-06879, 2-(2,4-dioxotetrahydropyrimidin-1(2H)-yl)-5-((4-(2-(trifluoromethyl)phenyl)piperidin-1-yl)methyl)isoindoline-1,3-dione] | B ("B" is defined as 80%< substrate protein remaining %≤ 100%) | B ("B" is defined as 80%< substrate protein remaining %≤ 100%) | B ("B" is defined as 80%< substrate protein remaining %≤ 100%) | B ("B" is defined as 80%< substrate protein remaining %≤ 100%) | B ("B" is defined as 80%< substrate protein remaining %≤ 100%) | A ("A" is defined as 0% ≤ substrate protein remaining % ≤ 80%) | – | – | – | – | – | –
7 | O=C1CCN(N2C(=O)c3ccc(CN4CCN(C(c5ccccc5)c5ccccc5)CC4)cc3C2=O)C(=O)N1 [GT-05267, 5-((4-benzhydrylpiperazin-1-yl)methyl)-2-(2,4-dioxotetrahydropyrimidin-1(2H)-yl)isoindoline-1,3-dione] | B ("B" is defined as 80%< substrate protein remaining %≤ 100%) | B ("B" is defined as 80%< substrate protein remaining %≤ 100%) | B ("B" is defined as 80%< substrate protein remaining %≤ 100%) | A ("A" is defined as 0% ≤ substrate protein remaining % ≤ 80%) | A ("A" is defined as 0% ≤ substrate protein remaining % ≤ 80%) | A ("A" is defined as 0% ≤ substrate protein remaining % ≤ 80%) | – | – | – | – | – | –
8 | COc1ccccc1N1CCN(Cc2ccc3c(c2)C(=O)N(N2CCC(=O)NC2=O)C3=O)CC1 [GT-06720, 2-(2,4-dioxotetrahydropyrimidin-1(2H)-yl)-5-((4-(2-methoxyphenyl)piperazin-1-yl)methyl)isoindoline-1,3-dione] | B ("B" is defined as 80%< substrate protein remaining %≤ 100%) | B ("B" is defined as 80%< substrate protein remaining %≤ 100%) | B ("B" is defined as 80%< substrate protein remaining %≤ 100%) | A ("A" is defined as 0% ≤ substrate protein remaining % ≤ 80%) | B ("B" is defined as 80%< substrate protein remaining %≤ 100%) | B ("B" is defined as 80%< substrate protein remaining %≤ 100%) | – | – | – | – | – | –
9 | O=C1CCN(N2Cc3cc(CN4CCN(c5nc(N6CCNCC6)c6sccc6n5)CC4)ccc3C2=O)C(=O)N1 [GT-08949, 1-(1-oxo-5-((4-(4-(piperazin-1-yl)thieno[3,2-d]pyrimidin-2-yl)piperazin-1-yl)methyl)isoindolin-2-yl)dihydropyrimidine-2,4(1H,3H)-dione] | – | – | – | – | – | – | B (80%< substrate protein remaining %≤ 100%) | B (80%< substrate protein remaining %≤ 100%) | B (80%< substrate protein remaining %≤ 100%) | B (80%< substrate protein remaining %≤ 100%) | B (80%< substrate protein remaining %≤ 100%) | A (0% ≤ substrate protein remaining % ≤ 80%)
10 | O=C1CCN(N2C(=O)c3ccc(CN4CC=C(c5cccc(Cl)c5Cl)CC4)cc3C2=O)C(=O)N1 [GT-05249, 5-((4-(2,3-dichlorophenyl)-3,6-dihydropyridin-1(2H)-yl)methyl)-2-(2,4-dioxotetrahydropyrimidin-1(2H)-yl)isoindoline-1,3-dione] | B ("B" is defined as 80%< substrate protein remaining %≤ 100%) | A ("A" is defined as 0% ≤ substrate protein remaining % ≤ 80%) | B ("B" is defined as 80%< substrate protein remaining %≤ 100%) | B ("B" is defined as 80%< substrate protein remaining %≤ 100%) | B ("B" is defined as 80%< substrate protein remaining %≤ 100%) | A ("A" is defined as 0% ≤ substrate protein remaining % ≤ 80%) | – | – | – | – | – | –
11 | CC1(C)CCC(CN2CC3CCC2CN3Cc2ccc3c(c2)C(=O)N(N2CCC(=O)NC2=O)C3=O)=C(c2ccc(Cl)cc2)C1 (stereo not drawn) [GT-07300, 5-((5-((4'-chloro-5,5-dimethyl-3,4,5,6-tetrahydro-[1,1'-biphenyl]-2-yl)methyl)-2,5-diazabicyclo[2.2.2]octan-2-yl)methyl)-2-(2,4-dioxotetrahydropyrimidin-1(2H)-yl)isoindoline-1,3-dione] | – | – | – | – | – | – | A (0% ≤ substrate protein remaining % ≤ 80%) | B (80%< substrate protein remaining %≤ 100%) | B (80%< substrate protein remaining %≤ 100%) | B (80%< substrate protein remaining %≤ 100%) | B (80%< substrate protein remaining %≤ 100%) | B (80%< substrate protein remaining %≤ 100%)
12 | O=C1CCN(N2C(=O)c3ccc(CN4CCC(N5C(=O)COc6cc(F)ccc65)CC4)cc3C2=O)C(=O)N1 [GT-07683, 2-(2,4-dioxotetrahydropyrimidin-1(2H)-yl)-5-((4-(7-fluoro-3-oxo-2,3-dihydro-4H-benzo[b][1,4]oxazin-4-yl)piperidin-1-yl)methyl)isoindoline-1,3-dione] | – | – | – | – | – | – | B (80%< substrate protein remaining %≤ 100%) | B (80%< substrate protein remaining %≤ 100%) | B (80%< substrate protein remaining %≤ 100%) | B (80%< substrate protein remaining %≤ 100%) | B (80%< substrate protein remaining %≤ 100%) | A (0% ≤ substrate protein remaining % ≤ 80%)
